Patent US6534311B2, “Drosophila melanogaster p70S6 kinase” (Novartis AG, priority 1996, dated 2003)

Experiments:
[1] = tested on: Drosophila p70S6K; assay: S6 kinase activity immunoprecipitated with D20 antibody from concentrated Mono Q fractions; type: cell-based, Drosophila melanogaster; details: cycloheximide-treated S2 cells, D20 immunoprecipitate and Western blot mobility
Procedure: (§1) Cell extracts are prepared and Drosophila p70^S6K activity is measured as previously described (28) or following immunoprecipitation (Lane, H. A., et al. (1992) EMBO J 11, 1743-1749) with the D20 antibody (2.5 μg).
S2 cells are plated at 5×10^7 cells per 15 cm dish in Schneider's medium supplemented with antibiotic and 10% foetal calf serum. After 24 h, cells are changed to Schneider's medium without serum and after an additional 36 h, 5 plates of cells are treated with 100 μM cycloheximide for two hours with or without pretreatment with […] rapamycin for 15 min. Cell extracts are prepared by dounce homogenisation in Extraction buffer lacking PNPP as described in Reinhard et al., above. […]
To distinguish between these rapamycin sensitive and insensitive S6 kinase activities and to determine whether either represented Drosophila p70^S6K, extracts from cycloheximide-stimulated S2 cells, pretreated with or without rapamycin, are fractionated by Mono Q chromatography. The fractions eluted from the Mono Q column are monitored by A280 and subjected to an in vitro S6 kinase assay. […] The concentrated samples from cells treated with cycloheximide either in the absence or presence of rapamycin pretreatment, are either immunoprecipitated and assayed for S6 kinase activity or analysed on Western blots employing the D20 antibody. […]

[2] = tested on: S6 kinase activity in S2 cells; type: cell-based, Drosophila; details: S2 cells treated with 100 μM cycloheximide for two hours
Procedure: as §1
S2 cells are plated at 5×10^7 cells per 15 cm dish in Schneider's medium supplemented with antibiotic and 10% foetal calf serum. After 24 h, cells are changed to Schneider's medium without serum and after an additional 36 h, 5 plates of cells are treated with 100 μM cycloheximide for two hours with or without pretreatment with […] rapamycin for 15 min. Cell extracts are prepared by dounce homogenisation in Extraction buffer lacking PNPP as described in Reinhard et al., above. Briefly, each extract is centrifuged for 30 min at 3×105 g, filtered through a 0.2 μm membrane (Millipore), and applied at a flow rate of 0.5ml per min to a 1 ml Mono Q column (Pharmacia) equilibrated in Buffer F (Kozma, S.C., et al. (1989) EMBO J 8, 4125-4132). The column is washed with 10 ml of Buffer F, developed at 0.5 ml per min with a 30 ml gradient from 0-0.5M NaCl in the same buffer, and each fraction is diluted 20-fold and assayed for kinase activity. Factions 16-19 are concentrated on 100 μl of FFQ Sepharose and eluted with 300 μl of 0.5M NaCl in Buffer F. […]

**Q.** How did the “activation of Drosophila p70S6K” value [1] turn out when C[C@@H]1C[C@@H]([C@H](O)CC2CC(=O)NC(=O)C2)C(=O)[C@@H](C)C1 [cycloheximide] was run?
**A.** Its value is “induces the activation”.

**Q.** And the “increase of S6 kinase activity over basal levels” value [2]?
**A.** Its value is 2.2 fold.
